Molecular target: N-type calcium channel (Rattus norvegicus, UniProt Q02294)
Format: binding

Sequence of N-type calcium channel (Q02294 whole entry, looked up): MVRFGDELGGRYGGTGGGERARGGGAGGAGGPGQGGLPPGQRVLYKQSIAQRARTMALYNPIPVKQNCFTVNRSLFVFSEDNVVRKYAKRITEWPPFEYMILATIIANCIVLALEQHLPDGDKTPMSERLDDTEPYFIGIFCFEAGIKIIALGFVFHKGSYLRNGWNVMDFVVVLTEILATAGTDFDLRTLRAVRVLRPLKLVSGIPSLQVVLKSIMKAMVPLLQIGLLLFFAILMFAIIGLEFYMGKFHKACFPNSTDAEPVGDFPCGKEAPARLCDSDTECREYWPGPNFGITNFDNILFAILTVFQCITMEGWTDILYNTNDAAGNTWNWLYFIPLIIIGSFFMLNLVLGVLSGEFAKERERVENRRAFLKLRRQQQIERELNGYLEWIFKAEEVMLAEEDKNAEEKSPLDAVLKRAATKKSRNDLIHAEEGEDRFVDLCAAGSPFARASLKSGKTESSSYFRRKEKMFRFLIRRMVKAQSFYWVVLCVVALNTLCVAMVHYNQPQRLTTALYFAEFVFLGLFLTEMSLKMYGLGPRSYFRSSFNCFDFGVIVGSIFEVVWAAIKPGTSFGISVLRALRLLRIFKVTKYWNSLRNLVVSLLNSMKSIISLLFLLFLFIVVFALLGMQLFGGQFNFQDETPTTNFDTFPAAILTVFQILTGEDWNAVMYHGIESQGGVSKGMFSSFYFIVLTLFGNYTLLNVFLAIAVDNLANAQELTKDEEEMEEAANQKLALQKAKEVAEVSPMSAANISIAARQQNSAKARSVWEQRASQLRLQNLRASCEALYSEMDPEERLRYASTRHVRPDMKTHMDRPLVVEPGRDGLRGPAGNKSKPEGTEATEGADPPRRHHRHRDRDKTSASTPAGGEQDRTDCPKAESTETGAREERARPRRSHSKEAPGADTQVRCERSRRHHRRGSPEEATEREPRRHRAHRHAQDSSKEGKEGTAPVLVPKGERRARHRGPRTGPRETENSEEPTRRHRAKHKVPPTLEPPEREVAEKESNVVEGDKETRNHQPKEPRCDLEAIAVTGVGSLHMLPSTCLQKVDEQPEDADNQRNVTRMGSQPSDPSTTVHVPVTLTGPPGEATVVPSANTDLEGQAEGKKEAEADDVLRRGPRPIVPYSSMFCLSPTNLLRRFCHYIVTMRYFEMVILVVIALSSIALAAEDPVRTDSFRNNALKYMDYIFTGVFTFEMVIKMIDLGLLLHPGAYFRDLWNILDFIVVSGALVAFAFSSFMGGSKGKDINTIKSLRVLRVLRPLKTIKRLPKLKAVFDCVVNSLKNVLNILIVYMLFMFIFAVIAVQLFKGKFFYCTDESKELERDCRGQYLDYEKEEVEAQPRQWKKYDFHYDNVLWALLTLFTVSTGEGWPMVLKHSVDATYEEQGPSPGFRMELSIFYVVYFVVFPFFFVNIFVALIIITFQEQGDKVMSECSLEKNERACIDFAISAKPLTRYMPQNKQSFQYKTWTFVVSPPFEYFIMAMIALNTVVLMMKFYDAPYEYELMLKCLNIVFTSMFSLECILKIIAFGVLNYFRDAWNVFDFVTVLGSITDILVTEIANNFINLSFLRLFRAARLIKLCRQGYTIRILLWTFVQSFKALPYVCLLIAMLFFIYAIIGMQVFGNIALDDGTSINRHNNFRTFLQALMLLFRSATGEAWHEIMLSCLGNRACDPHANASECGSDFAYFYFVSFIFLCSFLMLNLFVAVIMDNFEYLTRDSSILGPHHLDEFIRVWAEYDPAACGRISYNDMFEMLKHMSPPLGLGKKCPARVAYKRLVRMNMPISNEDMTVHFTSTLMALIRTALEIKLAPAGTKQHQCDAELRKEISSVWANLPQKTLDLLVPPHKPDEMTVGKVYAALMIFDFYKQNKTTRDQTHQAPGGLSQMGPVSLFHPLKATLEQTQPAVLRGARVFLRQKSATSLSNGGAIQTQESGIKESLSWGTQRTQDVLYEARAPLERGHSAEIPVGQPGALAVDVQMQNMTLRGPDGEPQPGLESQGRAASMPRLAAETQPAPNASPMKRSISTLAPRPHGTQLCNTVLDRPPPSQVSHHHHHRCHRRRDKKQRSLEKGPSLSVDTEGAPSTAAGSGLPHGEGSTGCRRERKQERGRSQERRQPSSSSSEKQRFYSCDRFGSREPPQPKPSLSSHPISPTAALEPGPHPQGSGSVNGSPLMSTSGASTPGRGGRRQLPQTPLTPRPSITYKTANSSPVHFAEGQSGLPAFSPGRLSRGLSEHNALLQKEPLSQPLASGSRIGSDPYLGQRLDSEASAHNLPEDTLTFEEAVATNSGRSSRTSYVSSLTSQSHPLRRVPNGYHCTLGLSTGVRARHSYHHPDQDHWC

CKSKGAKCDRLMYDCCSGSCSGTVGRC [D^9R^10-CVID]
potency for N-type calcium channel in receptor binding assays: high potency
selectivity for N-type calcium channel over P/Q-type calcium channel in receptor binding assays: high selectivity
